According to patent US10526291B2, “Potent dual BRD4-kinase inhibitors as cancer therapeutics” (H. Lee Moffitt Cancer Center and Research Institute, Inc., priority 2014, dated 2020):

Target: BRD4 (Homo sapiens, UniProt O60885)
Test: Differential Scanning Fluorimetry (DSF), stability of BRD4 upon ligand binding
Conditions: for ΔTm at 4 µM: 100 μM protein, 4 μM compound and 2% DMSO; for IC50: estimated
Experimental: DSF=Differential Scanning Fluorimetry; provides a measure of the increased stability of BRD4 upon ligand binding The DSF experiment was run at 100 μM protein, 4 μM compound and 2% DMSO.

Structure (SMILES)	ΔTm at 4 µM	IC50
CN1CCN(c2ccc(Nc3ncc(Cl)c(Nc4cccc(C(C)(C)C)c4)n3)cc2)CC1	0.12 ± 0.053 °C	19800 nM
COc1cccc(Nc2nc(Nc3ccc(N4CCN(C)CC4)cc3)ncc2Cl)c1	1.68 ± 0.078 °C	5960 nM
CC(C)S(=O)(=O)Nc1cccc(Nc2nc(Nc3ccc(N4CCN(C)CC4)cc3)nc3c2COC3)c1	3.9 ± 0.24 °C	1000 nM
CCOC(=O)c1cnc(Nc2ccc(N3CCN(C)CC3)cc2)nc1Nc1cccc(NS(=O)(=O)C(C)(C)C)c1	3.4 ± 0.12 °C	1600 nM
CN1CCN(c2ccc(Nc3nc4c(c(Nc5ccc(Cl)c(NS(=O)(=O)C6CC6)c5)n3)CCC4)cc2)CC1	4.6 ± 0.05 °C	620 nM
COc1ccc(Nc2nc(Nc3ccc(N4CCN(C)CC4)cc3)ncc2C)cc1OC	5.6 ± 0.059 °C	290 nM
Cc1cnc(Nc2ccc(N3CCN(C)CC3)c(F)c2)nc1Nc1ccc(Cl)c(NS(=O)(=O)CC(C)C)c1	8.89 ± 0.044 °C	74.8 nM
CCOc1cccc(Nc2nc(Nc3ccc(N4CCN(C)CC4)cc3)ncc2C)c1	5.4 ± 0.15 °C	340 nM
Cc1cnc(Nc2ccc(N3CCN(C)CC3)cc2)nc1Nc1ccc2c(c1)N(S(=O)(=O)C(C)(C)C)CCC2	8.72 ± 0.141 °C	87.3 nM
Cc1ccc(Nc2nc(Nc3ccc(N4CCN(C)CC4)cc3)ncc2C)cc1S(=O)(=O)NC1CCC1	6.7 ± 0.13 °C	130 nM
CCOC(=O)c1cnc(Nc2ccc(N3CCN(C)CC3)cc2)nc1Nc1cccc(S(=O)(=O)NC(C)(C)C)c1	-0.0056 ± 0.24 °C	> 20000 nM
Cc1cnc(Nc2ccc(C3CCN(C)CC3)cc2)nc1Nc1cccc(NS(=O)(=O)C(C)(C)C)c1	7.6 ± 0.28 °C	61 nM
Cc1cnc(Nc2cc(F)c(N3CCN(C)CC3)c(F)c2)nc1Nc1ccc(Cl)c(NS(=O)(=O)C2(C)CC2)c1	12.3 ± 0.167 °C	8.6 nM
COc1ccc(Nc2nc(C)c(C)c(Nc3cccc(S(=O)(=O)NC(C)(C)C)c3)n2)cc1	0.22 ± 0.2 °C	18300 nM
Cc1cnc(Nc2ccc(N3CCN(C)CC3)c(Cl)c2)nc1Nc1ccc(Cl)c(NS(=O)(=O)C(C)(C)C)c1	9.54 ± 0.163 °C	51.4 nM
CN1CCN(c2ccc(Nc3nc(Nc4cccc(S(=O)(=O)NC(C)(C)C)c4)c4ccccc4n3)cc2)CC1	2.6 ± 0.081 °C	2900 nM
COc1cc(Nc2nc(Nc3ccc(N4CCN(C)CC4)cc3)ncc2Cl)cc(OC)c1	3.5 ± 0.17 °C	1500 nM
Cc1cnc(Nc2ccc(N3CCN(C)CC3)cc2)nc1Nc1cccc(NS(C)(=O)=O)c1	4.6 ± 0.13 °C	630 nM
CCOc1cc(Nc2nc(Nc3ccc(N4CCN(C)CC4)cc3)ncc2Cl)ccc1Cl	3.7 ± 0.12 °C	1300 nM
CN1CCN(c2ccc(Nc3ncc(F)c(Nc4ccc(C(=O)NC5CC5)cc4)n3)cc2)CC1	3.4 ± 0.27 °C	1600 nM
CN1CCN(c2ccc(Nc3nc4c(c(Nc5cccc(S(=O)(=O)NC6CC6)c5)n3)CCC4)cc2)CC1	4.9 ± 0.099 °C	520 nM
Cc1cnc(Nc2ccc(N3CCN(C)CC3)cc2)nc1Nc1cccc(NC(=O)NC(C)C)c1	2.1 ± 0.1 °C	4300 nM
COc1cc(Nc2nc(Nc3ccc(N4CCN(C)CC4)cc3)ncc2C(=O)O)ccc1Cl	0.0094 ± 0.11 °C	22000 nM
Cc1cnc(Nc2ccc(N3CCN(C)CC3)cc2)nc1Nc1cccc(C(C)(C)C)c1	2.9 ± 0.12 °C	2330 nM

Structure (SMILES)	ΔTm at 4 µM	IC50
COc1cc(Nc2nc(Nc3ccc(N4CCN(C)CC4)cc3)ncc2C(C)C)ccc1Cl	1.4 ± 0.11 °C	7400 nM
COc1ccc(Nc2nc(Nc3ccc(N4CCN(C)CC4)cc3)ncc2Cl)cc1OC	5.1 ± 0.039 °C	430 nM
CC(C)NS(=O)(=O)c1cccc(Nc2nc(Nc3ccc(N4CCOCC4)cc3)ncc2Br)c1	-0.79 °C	39800 nM
CC(C)S(=O)(=O)Nc1cccc(Nc2nc(Nc3ccc(N4CCN(C)CC4)cc3)nc3c2CCC3)c1	4.3 ± 0.14 °C	770 nM
CN1CCN(c2ccc(Nc3nc(Nc4cccc(NS(=O)(=O)C5CC5)c4)c4ccccc4n3)cc2)CC1	5.8 ± 0.11 °C	260 nM
CC(C)NS(=O)(=O)c1cccc(Nc2nc(Nc3ccc(N4CCN(C)CC4)cc3)nc3c2CCC3)c1	3.8 ± 0.056 °C	1200 nM
Cc1cnc(Nc2ccc(N3CCN(C)CC3)cc2)nc1Nc1ccc2c(c1)N(S(=O)(=O)C(C)(C)C)CC2	9.97 ± 0.08 °C	39 nM
Cc1cnc(Nc2ccc(N3CCN(C)CC3)cc2)nc1Nc1cccc(NS(=O)(=O)N(C)C)c1	3.3 ± 0.36 °C	1800 nM
Cc1cnc(Nc2ccc(N3CCN(C)CC3)cc2)nc1Nc1ccc2c(c1)OCO2	0.79 ± 0.079 °C	12000 nM
COc1cccc(Nc2nc(Nc3ccc(N4CCN(C)CC4)cc3)ncc2C)c1	3.2 ± 0.083 °C	1850 nM
CN1CCN(c2ccc(Nc3ncc(C(=O)O)c(Nc4cccc(S(=O)(=O)NC(C)(C)C)c4)n3)cc2)CC1	-0.2 ± 0.2 °C	25000 nM
CN1CCN(c2ccc(Nc3ncc(F)c(Nc4cccc(NS(=O)(=O)C(C)(C)C)c4)n3)cc2)CC1	5.2 ± 0.15 °C	400 nM
Cc1cnc(Nc2ccc(N3CCN(C)CC3)cc2)nc1Nc1cccc([N+](=O)[O-])c1	3.17 ± 0.142 °C	3130 nM
Cc1nc(Nc2ccc(N3CCOCC3)cc2)nc(Nc2cccc(S(=O)(=O)NC(C)(C)C)c2)c1C	1.9 ± 0.17 °C	5030 nM
CC(C)(C)NS(=O)(=O)c1cccc(Nc2nc(Nc3ccc(N4CCNCC4)cc3)ncc2C(F)(F)F)c1	2.9 ± 0.031 °C	2330 nM
Cc1cc(Nc2ncc(C)c(Nc3ccc(Cl)c(NS(=O)(=O)C(C)(C)C)c3)n2)ccc1N1CCN(C)CC1	10.4 ± 0.151 °C	29.5 nM
CN1CCN(c2ccc(Nc3ncc(C(N)=O)c(Nc4cccc(NS(=O)(=O)C5CC5)c4)n3)cc2)CC1	2.3 ± 0.073 °C	3800 nM
COc1cc(Nc2nc(Nc3ccc(N4CCN(C)CC4)cc3)ncc2C)c(OC)cc1Cl	0.57 ± 0.25 °C	14000 nM
Cc1cnc(Nc2ccc(N3CCN(C)CC3)cc2)nc1Nc1ccc(Cl)c(NS(=O)(=O)C2CC2)c1	7 ± 0.14 °C	100 nM
Cc1cnc(Nc2ccc(N3CCN(C)CC3)cc2)nc1Nc1cccc(NS(=O)(=O)C(C)C)c1	7.5 ± 0.14 °C	66 nM
Cc1cnc(Nc2ccc(N3CCN(C)CC3)c(C(F)(F)F)c2)nc1Nc1cccc(NS(=O)(=O)C(C)(C)C)c1	8.12 ± 0.044 °C	129 nM
Cc1cnc(Nc2ccc(N3CCN(C)CC3)c(F)c2)nc1Nc1ccc2c(c1)N(S(=O)(=O)C(C)(C)C)CC2	12.1 ± 0.105 °C	9.8 nM
Cc1cnc(Nc2ccc(C(=O)NC3CCN(C)CC3)c(F)c2)nc1Nc1ccc2c(c1)N(S(=O)(=O)C(C)(C)C)CCC2	11.4 ± 0.103 °C	15.5 nM
Cc1ccc(Nc2nc(Nc3ccc(N4CCN(C)CC4)cc3)ncc2C)cc1S(=O)(=O)NC(C)(C)C	8.6 ± 0.09 °C	30 nM

Structure (SMILES)	ΔTm at 4 µM	IC50
CCc1cnc(Nc2ccc(N3CCN(C)CC3)cc2)nc1Nc1ccc(Cl)c(OC)c1	1.3 ± 0.11 °C	7980 nM
CC(C)(C)NS(=O)(=O)c1cccc(Nc2nc(Nc3ccc(N4CCOCC4)cc3)ncc2Cl)c1	-0.071 ± 0.042 °C	22900 nM
CC(C)(C)c1cccc(Nc2nc(Nc3ccc(N4CCOCC4)cc3)ncc2Cl)c1	-0.34 °C	28200 nM
Cc1cnc(Nc2ccc(N3CCN(C)CC3)cc2)nc1Nc1ccc(Cl)c(S(=O)(=O)NC(C)(C)C)c1	8.4 ± 0.13 °C	34 nM
CCc1cnc(Nc2ccc(N3CCN(C)CC3)cc2)nc1Nc1cccc(S(=O)(=O)NC(C)C)c1	2.2 °C	3990 nM
CCOc1cc(Nc2nc(Nc3ccc(N4CCN(C)CC4)cc3)ncc2C)ccc1Cl	6.4 ± 0.0066 °C	160 nM
CN1CCN(c2ccc(Nc3ncc(F)c(Nc4ccc(C(=O)Nc5ccccc5)cc4)n3)cc2)CC1	0.35 ± 0.068 °C	17000 nM
CC(C)NS(=O)(=O)c1cccc(Nc2nc(Nc3ccc(N4CCN(C)CC4)cc3)nc3c2COC3)c1	0.6 ± 0.14 °C	14000 nM
Cc1ccc(Nc2nc(Nc3ccc(N4CCN(C)CC4)cc3)ncc2C)cc1NS(=O)(=O)C(C)(C)C	9.2 ± 0.12 °C	18 nM
COc1cc(Nc2ccnc(Nc3ccc(N4CCN(C)CC4)cc3)n2)ccc1Cl	2.5 ± 0.069 °C	3200 nM
Cc1cnc(Nc2ccc(CC(=O)N3CCN(C)CC3)cc2)nc1Nc1ccc(Cl)c(NS(=O)(=O)C(C)(C)C)c1	9.8 ± 0.03 °C	12 nM
Cc1cnc(Nc2ccc(CC(=O)N3CCN(C)CC3)cc2)nc1Nc1ccc(C(=O)NC2CC2)cc1	6.8 ± 0.15 °C	110 nM
Cc1cnc(Nc2ccc(CC(=O)N3CCN(C)CC3)cc2)nc1Nc1ccc(Cl)cc1	4.1 ± 0.21 °C	930 nM
Cc1cnc(Nc2ccc(N3CCN(C)CC3)cc2)nc1Nc1ccc(Cl)c(NS(=O)(=O)c2ccccc2)c1	4.1 ± 0.1 °C	960 nM
Cc1cnc(Nc2ccc(N3CCN(C)CC3)cc2)nc1Nc1cccc(NC(=O)C2CC2)c1	4.6 ± 0.21 °C	630 nM
Cc1cnc(Nc2ccc(N3CCN(C)CC3)cc2)nc1Nc1cccc(OC(C)C)c1	6.6 ± 0.1 °C	140 nM
CN1CCN(c2ccc(Nc3nc4c(c(Nc5cccc(S(=O)(=O)NC(C)(C)C)c5)n3)CCC4)cc2)CC1	4.9 ± 0.11 °C	500 nM
Cc1ccc(Nc2nc(Nc3ccc(N4CCN(C)CC4)cc3)nc3ccccc23)cc1S(=O)(=O)NC(C)(C)C	6.1 ± 0.032 °C	200 nM
Cc1cnc(Nc2ccc(N3CCN(C)CC3)cc2)nc1Nc1ccc(Cl)c([N+](=O)[O-])c1	2 ± 0.05 °C	4700 nM
CN1CCN(c2ccc(Nc3nc4c(c(Nc5cccc(NS(=O)(=O)C(C)(C)C)c5)n3)CCC4)cc2)CC1	6.4 ± 0.12 °C	150 nM
Cc1cnc(Nc2ccc(N3CCN(C)CC3)cc2)nc1Nc1ccc(C(=O)NC2CC2)cc1	6.5 ± 0.11 °C	150 nM
CN1CCN(c2ccc(Nc3ncc(CO)c(Nc4cccc(NS(=O)(=O)C(C)(C)C)c4)n3)cc2)CC1	3.1 ± 0.08 °C	2000 nM
CCOC(=O)c1cnc(Nc2ccc(N3CCN(C)CC3)cc2)nc1Nc1ccc(Cl)c(OC)c1	0.24 ± 0.13 °C	18000 nM
